# Read-outs that look alike come from different tables or passages of the source.
# What was measured:
# [1] = test system: corneal neovasculature; type: in vivo, New Zealand albino rabbit
# Text: The corneal and limbal epithelia, along with the conjunctival epithelium 2-3 mm beyond the limbus, were removed from New Zealand albino rabbits by a combination of surgical scraping and n-heptanol debridement. The denuded corneal surfaces were then healed by the remaining conjunctival epithelium, of which 65% contained extensive neovascularization. From this group, 16 corneas with neovascularization persistent for about 20 months were subjected to photothrombotic treatment.
# Isotonic saline solution was used as a control solution.
# After anesthesia with intramuscular injection of xylazine (10 mg/kg bw) and ketamine (10 mg/kg bw), the rabbits were injected intravenously with either 2.5 ml of isotonic saline solution or rose bengal saline solution at a dosage of 40 mg/kg bw. Irradiation of corneal vessels was carried out with an argon ion laser (Model 95, Cooper LaserSonics, Fremont, Calif.) operated at 514.5 nm, as described by Mendelsohn et al. (Arch. Opthalmol., 105:983-988, 1987). The beam focusing apparatus was mounted in an X-Y positioning device attached to a rotary turntable, both with micrometer precision (Daedal, Inc., Harrison City, Pa.). With this apparatus, beam positioning stability and reproducibility of incident intensity were improved because irradiations were administered during the open cycle of the mechanical shutter. The incident power level was set at 200 mW; allowing for reflection losses in the fiber optic focusing system, the incident power was reduced to 130 mW. At the focal point, the laser beam was 63 μm in diameter. Each irradiation was 0.2 second in pulse duration. During the entire procedure, the corneas were continuously rinsed with a balanced salt solution delivered through a peristatic pump and the temperature of the solution was maintained at 37° C. with a water bath. After laser irradiation, topical antibiotics and steroids were applied for two days.
# Routine external photography and corneal fluorescein angiography were performed to document occlusion of the corneal blood vessels and the duration of their occlusion. Angiograms were taken with a ceiling-mounted Zeiss surgical photoscope after injection of 1 ml of 10 mg/ml fluorescein solution. Baseline angiography was performed two or three days before laser irradiation to avoid possible photosensitizing effects from the fluorescein dye used for angiography. After photothrombotic treatment, angiograms were taken on scheduled dates in order to monitor the duration of the occlusive effect. Late phase (5 minutes after injection) fluorescein angiograms were used for comparison.
# Various dosages of rose bengal solution were used to investigate the efficacy of photothrombosis.
# [2] = Absorption / excitation of the dye in tissue; type: physicochemical
# Text: Examples of lasers that can be used to provide the light beam include the He-Ne laser, the argon ion laser and the argon-pumped dye laser. The 543.5 nm He-Ne laser, for example, can excite rose bengal with an efficiency of 58% of the maximum. (The wavelength at which excitation efficiency for rose bengal is maximal in tissue occurs at 562 nm.) Because the maximum theoretical power output is only 4 or 5 milliwatts, the 543.5 nm He-Ne laser is not used in clinical applications at this time. However, this laser is expected to be particularly useful in permanently occluding relatively low-flow arteries, smaller than about 200 μm, such as those in the choroid of the eye.
# The argon ion laser is the most common clinical laser used at this time. Although the commonly used argon 514.5 nm line is only 36% efficient with respect to the maximum of rose bengal absorption, this laser is much more powerful (by at least a factor of 1000) and versatile than the He-Ne laser.
# The absorption maximum of erythrosin B in endothelial tissue is at 536 nm, which is closer than that of rose bengal to the standard 514.5 nm wavelength of the argon ion laser.
# [3] = test system: rabbit ocular mucin; experiment: Immunofluorescence of mucin expression with anti-ROM antibody; type: in vivo
# Protocol: The epithelial phenotype of the control and treated corneas was then studied by impression cytology (Tseng, Ophthalmology, 92:728-33, 1985) and routine histology using hematoxylin and PAS. In addition, immunofluorescent stainings of the frozen sections using a previously developed anti-rabbit ocular mucin monoclonal antibody [anti-ROM] was performed to study mucin expression.
# To further confirm the transition of epithelial differentiation, a monoclonal antibody against rabbit ocular mucin [anti-ROM] was used to examine the expression of mucin, the major product of goblet cells.
# [4] = test system: middle cerebral artery
# Protocol: In order to conduct irradiation of the rat middle cerebral artery at normal blood pressure, oral intubation was performed and mechanical ventilation was initiated after paralysis with pancuronium bromide. The rat was then placed on a tiltable stereotaxic frame, and the middle cerebral artery was exposed through a subtemporal approach. The right temporalis musculature was reflected anteriorally, and a 2×2 mm subtemporal craniotomy was carried out with the aid of a high-speed drill under a dissecting microscope, leaving the middle cerebral artery exposed and the dura intact at the level of the olfactory tract. Rose bengal dye (2 mg in 0.133 ml saline per 100 g animal weight) was administered intravenously, resulting in a blood concentration of 340 μM.
# The right middle cerebral artery, at a point just distal to the olfactory branches, was irradiated with the beam of a tunable argon ion laser (Lexel Model 95, Cooper LaserSonics, Santa Clara, CA), operated at 514.5 nm in the continuous mode at a power level of 50 mW. The beam was focused longitudinally onto the middle cerebral artery with two cylindrical lenses, both of 30 cm focal length. […] During irradiation, the irradiated segment appeared orange, owing to rose bengal fluorescence in the flowing blood stream. […]
# [5] = rabbit, in vivo
# Protocol: In order to investigate possible systemic side effects of rose bengal, the blood chemistry profiles of healthy rabbits before and after intravenous injection of rose bengal were studied. Four practical dosages, i.e., 40, 16, 8 and 4 mg/kg bw, were administered. Five rabbits were used for each dosage except for the dosage of 40 mg/kg bw, in which case ten rabbits were used. Three blood samples (3 ml each) were collected from each rabbit before injection with rose bengal, and one and five days following injection.
# [6] = rat, in vivo; cited from earlier work
structure (smiles),measurement,setting,value
O=C([O-])c1c(Cl)c(Cl)c(Cl)c(Cl)c1-c1c2cc(I)c(=O)c(I)c-2oc2c(I)c([O-])c(I)cc12.[Na+].[Na+] [rose bengal],Total Laser Shots to Occlude each Vessel,"[1]; 4 mg/kg BW i.v., duration 0-10 min, means ± s.d.",33 ± 8
same,Total Laser Shots to Occlude each Vessel,"[1]; 4 mg/kg BW i.v., duration 10-20 min, means ± s.d.",53 ± 8
same,Total Laser Shots to Occlude each Vessel,"[1]; 4 mg/kg BW i.v., duration 20-30 min, means ± s.d.",81 ± 11
same,Total Laser Shots to Occlude each Vessel,"[1]; 4 mg/kg BW i.v., duration 30-40 min",> 100
same,Total Laser Shots to Occlude each Vessel,"[1]; 4 mg/kg BW i.v., duration 40-50 min",N.O.
same,Total Laser Shots to Occlude each Vessel,"[1]; 4 mg/kg BW i.v., duration 50-60 min",N.O.
same,shots required to occlude blood vessels,[1]; 4 mg/kg bw,more than 100 shots
same,time window in which vessels could still be occluded,"[1]; 4 mg/kg bw, sufficient shots",≤ 30 min
same,Total Laser Shots to Occlude each Vessel,"[1]; 8 mg/kg BW i.v., duration 0-10 min, means ± s.d.",13 ± 4
same,Total Laser Shots to Occlude each Vessel,"[1]; 8 mg/kg BW i.v., duration 10-20 min, means ± s.d.",19 ± 1
same,Total Laser Shots to Occlude each Vessel,"[1]; 8 mg/kg BW i.v., duration 20-30 min, means ± s.d.",30 ± 4
same,Total Laser Shots to Occlude each Vessel,"[1]; 8 mg/kg BW i.v., duration 30-40 min, means ± s.d.",51 ± 7
same,Total Laser Shots to Occlude each Vessel,"[1]; 8 mg/kg BW i.v., duration 40-50 min, means ± s.d.",65 ± 6
same,Total Laser Shots to Occlude each Vessel,"[1]; 8 mg/kg BW i.v., duration 50-60 min, means ± s.d.",85 ± 10
same,shots per target vessel required for occlusion,[1]; 8 mg/kg bw or higher,< 20 shots
same,Total Laser Shots to Occlude each Vessel,"[1]; 16 mg/kg BW i.v., duration 0-10 min, means ± s.d.",8 ± 3
same,Total Laser Shots to Occlude each Vessel,"[1]; 16 mg/kg BW i.v., duration 10-20 min, means ± s.d.",9 ± 2
same,Total Laser Shots to Occlude each Vessel,"[1]; 16 mg/kg BW i.v., duration 20-30 min, means ± s.d.",10 ± 2
same,Total Laser Shots to Occlude each Vessel,"[1]; 16 mg/kg BW i.v., duration 30-40 min, means ± s.d.",13 ± 3
same,Total Laser Shots to Occlude each Vessel,"[1]; 16 mg/kg BW i.v., duration 40-50 min, means ± s.d.",20 ± 4
same,Total Laser Shots to Occlude each Vessel,"[1]; 16 mg/kg BW i.v., duration 50-60 min, means ± s.d.",32 ± 5
same,Total Laser Shots to Occlude each Vessel,"[1]; 40 mg/kg BW i.v., duration 0-10 min, means ± s.d.",5 ± 1
same,Total Laser Shots to Occlude each Vessel,"[1]; 40 mg/kg BW i.v., duration 10-20 min, means ± s.d.",5 ± 1
same,Total Laser Shots to Occlude each Vessel,"[1]; 40 mg/kg BW i.v., duration 20-30 min, means ± s.d.",6 ± 1
same,Total Laser Shots to Occlude each Vessel,"[1]; 40 mg/kg BW i.v., duration 30-40 min, means ± s.d.",8 ± 2
same,Total Laser Shots to Occlude each Vessel,"[1]; 40 mg/kg BW i.v., duration 40-50 min, means ± s.d.",10 ± 3
same,Total Laser Shots to Occlude each Vessel,"[1]; 40 mg/kg BW i.v., duration 50-60 min, means ± s.d.",15 ± 4
same,corneal fluorescein angiography,[1]; after photothrombosis,completely occluded without any dye leakage
same,recanalization / new vessel formation,[1]; four-month study period,without recanalization or stimulation of new vessel formation elsewhere
same,involution of occluded corneal vessels,[1]; one week after irradiation,gradually involuted
same,conjunctival side effect,"[1]; rabbit, in vivo, 40 mg/kg",edematous and slightly pinkish in color
same,excitation efficiency relative to maximum of absorption,[2]; 514.5 nm argon line,36%
same,excitation efficiency relative to maximum,[2]; 543.5 nm He-Ne laser,58%
same,"gain in efficiency of endothelial photosensitization, factor",[2]; argon-pumped dye laser (562 nm) over 514.5 nm argon line,≥ 3
same,wavelength of maximal excitation efficiency / absorption maximum in tissue,[2]; in tissue,562 nm
same,mucin in epithelium of occluded corneas,[3]; four weeks,complete absence
same,expression of mucin antigen,[3]; with time after vessel occlusion,diminish gradually with time
same,irradiation time,"[4]; 2 mg per 100 g i.v., 50 mW, 514.5 nm",~5 min
same,occluded segment length,"[4]; rat, in vivo",approximately 1 mm
same,"external examination, discoloration",[5],slightly pinkish discoloration of the mucosal surfaces
same,lethargy or change of appetite,[5],Neither lethargy nor change of appetite was noted
same,blood chemistry overall,[5]; 40 mg/kg,within the normal range except for a small number in the group that received the highest dosage
same,long-term systemic toxicity,[5]; iv,does not result in long-term systemic toxicity
same,half-life in blood,[6],two

# From patent publication US5053006A, “Method for the permanent occlusion of arteries” (priority 1990, dated 1991)
